Laboratory results taken from patent US7592188B2, “Live cell biosensors” (The Scripps Research Institute, priority 2004, dated 2009).
“Also recorded” adds a separate entry of the source.

Experiments:
[1] = tested on: Rho kinase; test: Extension and retraction of protrusions with Rho kinase inhibitor; type: cell-based
Excerpt: These possibilities were distinguished by blocking retraction using an inhibitor of Rho kinase (Y27632).

[2] = Quantum yield of triplet state formation; type: physicochemical; conditions: in ethanol
[3] = Photophysical properties of dyes in various solvents (absorbance, emission, quantum yield); type: physicochemical; parameters: ε × F / ε × Φ: unit not given here
Experimental: Analytical grade reagents were purchased from major suppliers. […] Emission and excitation spectra were obtained using a Spex Fluorolog 2 spectrofluorometer at 23° C. […] Demas et al., J. Phys. […] All operations with dyes were performed under dim light. Flasks containing dyes were wrapped with aluminum foil.

[4] = Dye photo-bleaching under tungsten lamp irradiation; type: physicochemical
Experimental: Photo-bleaching. All samples contained 1 mM dye in a final volume of 10 mL. For nitrogen and oxygen saturation the samples were bubbled with solvent-saturated gas for 30 min. A 90 W halogen tungsten lamp was employed for irradiation, with a fan used for cooling. The temperature of samples was 25±1° C. during reactions. The absorption spectrum of each sample was measured before irradiation and after every 10 h period. For the trapping experiment thioanisole (1.0 M) was added to oxygen-saturated butanol solution of dye 1b. After 60 h of irradiation the reaction mixture was analyzed by GC-MS for products formed. The products, methylphenylsulfoxide and methylphenyl sulfone, were identified by comparison with authentic samples.
Dyes used in living cells must be photostable to provide many sequential images and to obtain sufficient light from minimal amounts of exogenous labeled material. The photostability of the new dyes was characterized by exposing them to constant illumination from a tungsten lamp filtered through glass, a broad spectrum light source that provided essentially equal intensity throughout the spectral range where the dyes would be irradiated in vivo. A fan was used to prevent heating, and dye solutions were adjusted for equal maximal absorbance, kept below 1 μM to minimize the inner filter effect. […] Photo-bleaching followed first-order kinetics in all cases.

[5] = target: T1, Rac (Homo sapiens, UniProt P63000); test: Specificity of I-SO WASP biosensor for activated GTPases; type: binding; conditions: concentrations well above physiological levels
T1 construct: 6His; made in house; host or cells: E. coli BL21DE3, only by the words 'analogous procedures'
Experimental: (§1) Further studies were conducted using the I—SO dye 4b attached at position F271 C of the WASP fragment. This biosensor had properties similar to the S—SO biosensor described above. […] To determine the specificity of the biosensor, interactions with different activated GTPases were examined. The biosensor distinguished proteins closely related to Cdc42 from other members of the Rho family.

[6] = target: TC10 (Homo sapiens, UniProt P17081); test: as above; type: binding
Experimental: as §1

[7] = target: T2, RhoA (Homo sapiens, UniProt P61586); test: as above; type: binding; conditions: concentrations well above physiological levels
T2 construct: 6His; made in house; host or cells: E. coli BL21DE3, only by the words 'analogous procedures'
Experimental: as §1

[8] = tested on: Cdc42; test: MeroCBD biosensor imaging of Cdc42 activation in living cells; type: cell-based; conditions: in words
Excerpt: The I—SO labeled WASP fragment provided a straightforward means to assay Cdc42 activation in cell lysates. By simply adding the biosensor to the lysate, the fluorescence readout of Cdc42 activation. This method was used to determine the kinetics of Cdc42 activation in neutrophils after stimulation with chemoattractant fMetLeuPhe (FMLP) peptide. Results obtained paralleled those previously reported using well-established methods (Benard et al., J. Biol. Chem. 275: 36457 (2000). Fluorescence of the biosensor was also used to monitor the real-time kinetics of Cdc42 GDP/GTP exchange in vitro. Because the labeled WASP fragment responded to activated Cdc42 through fluorescence intensity modulation, a ratiometric imaging approach was used to correct for effects of varying cell thickness, uneven illumination, and other factors that could affect imaging of dye intensity (Bright et al., Methods Cell Biol. 14: 157 (1989). The biosensor was fused to enhanced green fluorescent protein (EGFP) to provide a fluorescence signal insensitive to Cdc42 binding, but with the same subcellular distribution as the sensitive dye. The dye image could be divided by the EGFP image to normalize changes in dye intensity not originating from Cdc42 binding. […] Fluorescence response and Cdc42 binding of the biosensor remained intact after these modifications. […]

Sequence of TC10 (P17081 whole entry, species assumed): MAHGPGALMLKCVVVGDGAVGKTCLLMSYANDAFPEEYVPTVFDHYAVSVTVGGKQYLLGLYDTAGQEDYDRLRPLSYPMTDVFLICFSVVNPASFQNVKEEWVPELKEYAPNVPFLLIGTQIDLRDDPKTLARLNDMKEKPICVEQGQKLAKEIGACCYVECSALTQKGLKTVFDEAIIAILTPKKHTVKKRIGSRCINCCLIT
T2 sequence (P61586 whole entry, species assumed): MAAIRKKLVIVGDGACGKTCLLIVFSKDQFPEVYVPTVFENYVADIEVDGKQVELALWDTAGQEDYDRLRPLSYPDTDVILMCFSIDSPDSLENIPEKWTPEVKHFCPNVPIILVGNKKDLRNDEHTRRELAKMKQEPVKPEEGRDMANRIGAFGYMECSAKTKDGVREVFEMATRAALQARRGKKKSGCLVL

C[C@@H](N)[C@H]1CC[C@H](C(=O)Nc2ccncc2)CC1 [Y27632]
effect on protrusions [1]: caused protrusions to continue expanding even after Cdc42 activity decreased

CCN1/C(=C\C=C\C=C2C(=O)N(C)C(=S)N(C)C2=O)Sc2ccccc21 [dye 1b, 1,3-Dimethyl-5-[(2E,4E)-4-(3-ethyl-1,3-benzothiazol-2(3H)-ylidene)-but-2-enylidene]-2-thioxodihydropyrimidine-4,6(1H,5H)-dione]
ΦT, quantum yield of triplet state formation [2]: 0.008
Abs. λmax ([3]; solvent BuOH): 595 nm
Emission λmax ([3]; solvent BuOH): 613 nm
Φ (quantum yield of fluorescence) ([3]; solvent BuOH): 0.26
ε (molar extinction coefficient) ([3]; solvent BuOH): (188000)
ε × F ([3]; solvent BuOH): 49000
Abs. λmax ([3]; solvent C6H6): 600 nm
Emission λmax ([3]; solvent C6H6): 617 nm
Φ (quantum yield of fluorescence) ([3]; solvent C6H6): 0.37
ε (molar extinction coefficient) ([3]; solvent C6H6): (184000)
ε × F ([3]; solvent C6H6): 68000
Abs. λmax ([3]; solvent DMF): 595 nm
Emission λmax ([3]; solvent DMF): 613 nm
Φ (quantum yield of fluorescence) ([3]; solvent DMF): 0.32
ε (molar extinction coefficient) ([3]; solvent DMF): (194000)
ε × F ([3]; solvent DMF): 62000
Abs. λmax ([3]; solvent MeOH): 583 nm
Emission λmax ([3]; solvent MeOH): 606 nm
Φ (quantum yield of fluorescence) ([3]; solvent MeOH): 0.13
ε (molar extinction coefficient) ([3]; solvent MeOH): (134000)
ε × F ([3]; solvent MeOH): 18000
Abs. λmax ([3]; solvent OcOH): 598 nm
Emission λmax ([3]; solvent OcOH): 615 nm
Φ (quantum yield of fluorescence) ([3]; solvent OcOH): 0.52
ε (molar extinction coefficient) ([3]; solvent OcOH): (220000)
ε × F ([3]; solvent OcOH): 115000
Absolute rate constant of dye photo-bleaching, kph × 10^6 ([4]; BuOH): 5.2 s^−1
Absolute rate constant of dye photo-bleaching, kph × 10^6 ([4]; MeOH): 4.3 s^−1

B1: I—SO-WASP biosensor: I—SO dye attached at position F271C of the WASP fragment (conjugate)
chain: DIQNPDITSSRYRGLPAPGPSPADKKRSGKKKISKADIGAPSGFKHVSHVGWDPQNGFDVNNLDPDLRSLCSRAGISEAQLTDAETSKLIYDFIEDQGGLEAVRQEMRRQEPLPPPPPPS
modifications: left off: small tags and cut ends
notes: I—SO dye attached at position F271C of the WASP fragment
interaction with Rac [5]: did not interact
response to TC10 [6]: responded
interaction with RhoA [7]: did not interact

B2: MeroCBD (conjugate)
chain: DIQNPDITSSRYRGLPAPGPSPADKKRSGKKKISKADIGAPSGFKHVSHVGWDPQNGFDVNNLDPDLRSLCSRAGISEAQLTDAETSKLIYDFIEDQGGLEAVRQEMRRQEPLP
modifications: left off: large carriers
Cdc42 activation reported by biosensor in living cells [8]: showed localized Cdc42 activation even in unstimulated cells; also recorded: consistently showed activation in the trans-Golgi apparatus of endothelial cells
